Experimental data published in patent US20140336182A1, “Aurora Kinase Modulators and Method of Use” (Amgen Inc., priority 2013, published 2014).

System: HeLa cells
Assay: HeLa cell 24 hr ploidy assay (DNA content)
Assay type: cell-based
Conditions: Homo sapiens, HeLa, HeLa cells, 4N ploidy, average, read-out: 24h_4NPloidy EC50_IP (uM Avg)
In short: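 HeLa cells (1×10^4/well, MEM+10% FBS) cultured 24 h, treated with serially diluted compounds (0.25% DMSO final), then fixed, permeabilized and stained with Hoechst 33342 (0.5 ug/ml). Imaging quantified % 4N and >4N cells; EC50 IP and EC50 transit derived from dose curves.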

| EC50 [µM] | Compound |
| --- | --- |
| 0.191 | CCc1cc(-c2cccc(Cl)c2)nnc1Nc1ccc(Oc2ccnc3cc(OC)cnc23)cc1 [compound 335] |
| 0.001 | Cc1csc(-c2nnc(Nc3ccc(Sc4ccnc5cccnc45)cc3)c3ccccc23)c1 [compound 336] |
| 0.229 | COc1cnc2c(Oc3ccc(Nc4nnc(N5CCSCC5)c5ccccc45)cc3)ccnc2c1 [compound 337] |
| 0.005 | Cn1cc(-c2ccc3c(Oc4ccc(Nc5nnc(-c6ccccc6)c6ccccc56)cc4)ccnc3c2)cn1 [compound 338, N-(4-(7-(1-methyl-1H-pyrazol-4-yl)quinolin-4-yloxy)phenyl)-4-phenylphthalazin-1-amine] |
| 0.027 | c1ccc(-c2nnc(Nc3ccc(Oc4ccnc5cc(-c6ccsc6)ccc45)cc3)c3ccccc23)cc1 [compound 339] |
| ≥ 1.2 | c1ccc(-c2nnc(Nc3ccc(Cn4cnc5ccccc54)cc3)c3ccccc23)cc1 [compound 340] |
| ≥ 1.2 | Clc1ccc(-c2nnc(Nc3ccc(Cn4cnc5ccccc54)cc3)c3ccccc23)cc1 [compound 341] |
| 0.044 | Fc1cc(F)c2c(Sc3ccc(Nc4nnc(-c5ccc(Cl)cc5)c5ccccc45)cc3)ccnc2c1 [compound 342] |
| 0.025 | c1ccc(-c2nnc(Nc3ccc(Oc4ccnc5cc(-c6ccoc6)ccc45)cc3)c3ccccc23)cc1 [compound 343] |
| 0.044 | Cc1ccc(-c2ccc3c(Oc4ccc(Nc5nnc(-c6ccccc6)c6ccccc56)cc4)ccnc3c2)o1 [compound 344] |
| 0.013 | COc1ccc2c(Oc3ccc(Nc4nnc(-c5ccc(Cl)cc5)c5ccccc45)cc3)ccnc2c1 [compound 345] |
| 0.016 | COc1cnc2c(Sc3ccc(Nc4nnc(N5CCCCC5)c5ccccc45)cc3)ccnc2c1 [compound 346] |
| 0.039 | COc1ccc2nccc(Oc3ccc(Nc4nnc(-c5ccccc5)c5ccccc45)cc3)c2n1 [compound 347] |
| 0.012 | COc1ccc2nccc(Sc3ccc(Nc4nnc(-c5ccc(Cl)cc5)c5ccccc45)cc3)c2n1 [compound 348] |
| > 1.2 | Clc1ccc(-c2nnc(Nc3ccc(CN4CCOc5ccccc54)cc3)c3ccccc23)cc1 [compound 349] |
| 0.077 | COc1cnc2c(Oc3ccc(Nc4nnc(-c5cc(C)no5)c5ccccc45)cc3)ccnc2c1 [compound 350] |
| 0.053 | N#Cc1cc2nccc(Sc3ccc(Nc4nnc(-c5ccc(Cl)cc5)c5ccccc45)cc3)c2s1 [compound 351] |
| 0.055 | c1ccc(-c2nnc(Nc3ccc(Sc4ccnc5[nH]ncc45)cc3)c3ccccc23)cc1 [compound 352] |
| 0.007 | COc1cc2nccc(Sc3ccc(Nc4nnc(-c5ccccc5)c5ccccc45)cc3)c2cn1 [compound 353] |
| 0.007 | COc1cc2nccc(Sc3ccc(Nc4nnc(-c5ccc(Cl)cc5)c5ccccc45)cc3)c2cn1 [compound 354] |
| 0.015 | c1ccc(-c2nnc(Nc3ccc(Sc4ccnc5ccsc45)cc3)c3ccccc23)cc1 [compound 355] |
| 0.007 | COc1cnc2c(Sc3ccc(Nc4nnc(-c5ccc(F)cc5)c5ccccc45)cc3)ccnc2c1 [compound 356, 4-(4-fluorophenyl)-N-(4-(7-methoxy-1,5-naphthyridin-4-ylthio)phenyl)phthalazin-1-amine] |
| 0.007 | COc1ccc(-c2nnc(Nc3ccc(Sc4ccnc5cc(OC)cnc45)cc3)c3ccccc23)cc1 [compound 357] |
| 0.035 | CCc1cc(-c2ccc(C)cc2)nnc1Nc1ccc(Sc2ccnc3cccnc23)cc1 [compound 358] |
| 0.013 | Clc1ccc(-c2nnc(Nc3ccc(Sc4ccnc5[nH]ncc45)cc3)c3ccccc23)cc1 [compound 359] |
| 0.413 | CNC(=O)c1cc(Sc2ccc(Nc3nnc(-c4ccc(Cl)cc4)c4ccccc34)cc2)ccn1 [compound 360] |
| 0.22 | CNC(=O)c1cc(Oc2ccc(Nc3nnc(-c4ccc(Cl)cc4)c4ccccc34)cc2)ccn1 [compound 361] |

| EC50 [µM] | Compound |
| --- | --- |
| 0.105 | c1ccc(-c2nnc(Nc3ccc(Sc4ccnc5[nH]cnc45)cc3)c3ccccc23)cc1 [compound 362] |
| 0.032 | Clc1ccc(-c2nnc(Nc3ccc(Sc4ccnc5[nH]cnc45)cc3)c3ccccc23)cc1 [compound 363] |
| 0.005 | COc1ccc2c(Sc3ccc(Nc4nnc(-c5ccc(Cl)cn5)c5ccccc45)cc3)ccnc2c1 [compound 364] |
| 0.003 | Clc1ccc(-c2nnc(Nc3ccc(Sc4ccnc5ccccc45)cc3)c3ccccc23)nc1 [compound 365] |
| 0.002 | Cc1csc(-c2nnc(Nc3ccc(Sc4ccnc5ccsc45)cc3)c3ccccc23)c1 [compound 366] |
| 0.039 | COc1cnc2c(Oc3ccc(Nc4nnc(-c5ccccc5)c5c4CCC5)cc3)ccnc2c1 [compound 367] |
| 0.021 | COc1ccc2c(Oc3ccc(Nc4nnc(-c5ccccc5)c5c4CCC5)cc3)ccnc2c1 [compound 368] |
| > 1.2 | Clc1ccc(-c2nnc(Nc3ccc(Oc4cnnc5ccc(Br)cc45)cc3)c3ccccc23)cc1 [compound 369] |
| 0.757 | c1ccc(-c2nnc(Nc3ccc(Oc4ccnc5ccnn45)cc3)c3ccccc23)cc1 [compound 370] |
| > 1.2 | COc1cnc2c(Oc3ccc(Nc4nnc(-c5ccc(Cl)cc5)c5c4CCC5)cc3)ccnc2c1 [compound 411] |
| > 1.2 | COc1ccc2c(Oc3ccc(Nc4nnc(-c5ccc(Cl)cc5)c5c4CCC5)cc3)ccnc2c1 [compound 412] |
| 0.041 | COc1cnc2c(Sc3ccc(Nc4nnc(-c5ccccc5)c5ccccc45)cn3)ccnc2c1 [compound 413] |
| 0.015 | Oc1cnc2c(Sc3ccc(Nc4nnc(-c5ccccc5)c5ccccc45)cc3)ccnc2c1 [compound 415] |
| 0.008 | Cc1ccc(-c2nnc(Nc3ccc(Oc4ccnc5cccnc45)cc3)c3ccccc23)cc1N [compound 416] |
| 0.001 | c1ccc(-c2nnc(Nc3ccc(Oc4ccnc5cc(-c6cn[nH]c6)ccc45)cc3)c3ccccc23)cc1 [compound 417] |
| 0.004 | COc1cc2ncnc(Sc3ccc(Nc4nnc(-c5ccc(Cl)cc5)c5ccccc45)cc3)c2cc1OC [compound 418] |
| 0.124 | COc1ccc2nccc(Sc3ccc(Nc4nnc(-c5cccc(C)n5)c5ccccc45)cc3)c2n1 [compound 419] |
| 0.029 | COc1cnc2c(Sc3ccc(Nc4nnc(-c5cccc(C)n5)c5ccccc45)cc3)ccnc2c1 [compound 420] |
| 0.051 | Cc1cccc(-c2nnc(Nc3ccc(Sc4ccnc5cccnc45)cc3)c3ccccc23)n1 [compound 421] |
| 0.01 | COc1cc2c(Oc3ccc(Nc4nnc(-c5ccccc5)c5ccccc45)cc3)ccnc2cc1O [compound 422] |
| 0.031 | Clc1ccc(-c2nnc(Nc3ccc(Oc4ccnc5ccncc45)cc3)c3ccccc23)cc1 [compound 423] |
| 0.024 | c1ccc2c(-c3ccc4c(c3)OCO4)nnc(Nc3ccc(Oc4ccnc5ccncc45)cc3)c2c1 [compound 424] |
| 0.024 | c1ccc(-c2nnc(Nc3ccc(Sc4ccnc5ccncc45)cc3)c3ccccc23)cc1 [compound 425] |
| 0.008 | Clc1ccc(-c2nnc(Nc3ccc(Sc4ccnc5ccncc45)cc3)c3ccccc23)cc1 [compound 426] |
| 0.002 | c1ccc2c(-c3ccc4c(c3)OCO4)nnc(Nc3ccc(Sc4ccnc5ccncc45)cc3)c2c1 [compound 427] |
| 0.016 | Cc1csc(-c2nnc(Nc3ccc(Sc4ccnc5ccncc45)cc3)c3ccccc23)c1 [compound 428] |
| 0.034 | Cc1csc(-c2nnc(Nc3ccc(Oc4ccnc5ccncc45)cc3)c3ccccc23)c1 [compound 429] |
